# Measurements: patent publication US20100330602A1, “Use of Soluble Galectin-3 (Gal-3) for Cancer Treatment” (Emory University, priority 2006, published 2010)
# Peptide text beside a SMILES is read from it. * marks the point of attachment. Cbz = O=C(OCc1ccccc1)*; CH2F = FC*
# Experiments:
# LN-Z308 glioma cells = experiment: Crystal violet assay, CM of sGal-3 transfected 293 cells; type: cell-based, human; details: CM of transfected 293 cells as source of sGal-3, after 48 h
# Procedure: (§1) 293 cells were transfected using GenePORTER reagent (Gene Therapy Systems; CA, USA) with the pUMVC7-sGal-3 plasmid and switched over to serum free media 16 h later. The CM was collected after 48 h, floating cells removed through centrifugation at 1000 g, and filtrated through a 0.8 μm filter (Corning; NY, USA). Cells were plated at 5,000 cells per well in 24-well plates and treated with serial dilutions of CM from either pCMV-LacZ or pUMVC7-sGal-3 transfected 293 cells. Relative cell number compared to serum free media control was quantified in triplicate 24 h and 48 h post treatment using either an MTT kit (Roche; IN, USA) or by crystal violet assay by acquiring absorbance at 575 nm using a spectrophotometer.
# (§2) After cleavage of the secretion signal, the sGal-3 amino acid sequence is identical to the endogenous secretion product. It is nevertheless possible that sGal3 will have different post-translational modifications that may vary between the exosome-mediated secretory pathway and the classical secretion pathway. To verify the functionality of the construct, the construct was transfected in 293-CLH cells where it mediated a robust increase in the expression and secretion of Gal-3 without intracellular accumulation (FIG. 6A). Using the CM of transfected 293 cells as a source of sGal-3, its effect on the growth of SF767, LN-Z308 and LN229 glioma cells was determined using a crystal violet assay. […] Cells incubated with serum free medium or CM from 293 cells transfected with control pCMV-lacZ plasmid were unaffected (FIG. 6B).
# LN229 glioma cells = experiment: as above; type: cell-based, human; details: CM of transfected 293 cells as source of sGal-3, after 48 h
# Procedure: as §1, §2
# SF767 glioma cells = experiment: as above; type: cell-based, human; details: CM of transfected 293 cells as source of sGal-3, after 48 h
# Procedure: as §1, §2
# [1] = test system: A549 lung cancer cell line; experiment: as above; type: cell-based
# Procedure: as §1
# (§3) To examine whether the cytotoxic effect of Gal-3 was limited to glioma or whether it represents a more general anti-cancer property, two breast cancer (MD468 and MCF7), two lung cancer (A549 and H1289) and two prostate cancer (LnCaP and PC3) cell lines were tested using the same assay and found all of them to be sensitive to sGal-3 presence in the medium (FIG. 6B).
# [2] = test system: H1289 lung cancer cell line; experiment: as above; type: cell-based
# Procedure: as §1, §3
# [3] = test system: LnCaP prostate cancer cell line; experiment: as above; type: cell-based
# Procedure: as §1, §3
# [4] = test system: MCF7 breast cancer cell line; experiment: as above; type: cell-based
# Procedure: as §1, §3
# [5] = test system: MD468 breast cancer cell line; experiment: as above; type: cell-based
# Procedure: as §1, §3
# [6] = test system: PC3 prostate cancer cell line; experiment: as above; type: cell-based
# Procedure: as §1, §3
# [7] = test system: human dermal microvascular endothelial cells (HDMEC); experiment: Crystal violet assay, CM of sGal-3 transfected 293 cells, normal cells; type: cell-based
# Procedure: as §1, §3
# [8] = test system: human foreskin fibroblasts (HFF); experiment: as above; type: cell-based
# Procedure: as §1, §3
# [9] = test system: LN229 and LN-Z308 glioma cells; experiment: Apoptotic features after sGal-3 treatment with or without Z-VAD; type: cell-based, human
# Procedure: (§4) FIG. 4: Secreted Gal-3 induces apoptosis in tumor cells. FIG. 4A. Bright field pictures and quantification of LN229 glioma cells after 12 h treatment with either secreted Gal-3 alone or in combination with 50 μM Z-VAD general caspase inhibitor. Note inhibition of sGal-3-mediated cell death when cells are co-treated with Z-VAD. Results were quantified by crystal violet assay and experiments repeated three times in triplicate. Similar results were obtained with LN-Z308 cells (data not shown). FIG. 4B.
# (§5) Immunoblots were performed on cell lysates (lysed in 8 M urea, 4% SDS, in 10 mM Tris (pH 7.4)), from indicated cells. The conditioned media was precipitated by 15% TCA precipitation for 2 h at 4° C., washed twice with ice-cold acetone, and then resuspended in lysis buffer (8M urea, 4% SDS, 100 mM protease inhibitor cocktail (Roche, Germany)). Electrophoresis and blotting was performed using the Criterion system (BioRad; CA, USA) on. TCA precipitated proteins. […]
# (§6) LN229 and LN-Z308 glioma cells were treated with either extracellular Gal-3 alone, or in combination with the Z-VAD general caspase inhibitor and analyzed the cells for apoptotic features.
# [10] = test system: Caspase-3 and PARP cleavage in LN229 cells; experiment: Western blot for caspase-3 and PARP cleavage after sGal-3 treatment; type: cell-based, human
# Procedure: as §4, §5, §6
# [11] = test system: LN229-L16-derived dox-inducible sGal-3 clones; experiment: Dox-induced sGal-3 expression in cell culture; type: cell-based, human; details: within 3-5 days in cell culture
# Procedure: Five μg of the plasmid DNA and 5 μl of GenePORTER reagent (Gene Therapy Systems; San Diego, Calif.) were used for each transfection. One μg of pcDNA3.1 containing the geneticin (G418)-resistance cassette was co-transfected at a […], when generating stable clones. Tetracycline-inducible sGal-3 transfected clones were generated in L16 glioma cells (Tet-on clone derived from LN229) by selecting for G418 resistance (1,200 μg/ml). The individual clones were assessed for expression of sGal-3 after 48 h dox induction by western blot analysis. For TSAP6 siRNA, HEK293 cells were transfected with either pcDNA3.1 vectors containing TSAP6 and Galectin-3 alone or in combination with […] or TSAP6 (pHYDE) siRNA (Santa Cruz, Calif., USA) using GenePORTER reagent (Gene Therapy Systems; CA, USA). Cells were allowed to recover overnight in 10% FBS containing DMEM before switching them to serum free media. Cells and CM were collected after 24 hours in serum free media.
# To test this concept, dox-inducible sGal-3 clones were generated with variable expression levels in LN229-L16 cells (rtTA expressing) (see materials and methods) (FIG. 7A).
# [12] = test system: tumors of sGal-3 expressing tet-inducible clones #12 and #21; experiment: In vivo mouse tumorigenicity assay (subcutaneous xenograft); set-up: species or system athymic nude mice
# Procedure: FIG. 7C. sGal-3 inhibits tumor growth. Six-week old female athymic nude mice (NCI) were injected subcutaneously with 5×10^6 cells of clone #12 and divided into two groups (n=8). Similar results were obtained with clone #21. One group was left untreated while the second group was given 2 mg/ml Dox in drinking water containing 5% sucrose to induce expression of sGal-3 one week after tumor cell implantation until termination of the experiment. The length (a) and width (b) of the tumors were measured weekly and tumor volume was calculated in mm^3=(a×b^2)/2.
# Six-week old female athymic nude mice (NCI) (n=8/group) were injected subcutaneously with 5×10^6 cells of the indicated cell lines. 2 mg/ml Dox was delivered orally in drinking water containing 5% sucrose to induce expression and secretion of Gal-3 one week post injection of tumor cells until termination of the experiment. The length (a) and width (b) of the tumors were measured weekly and tumor volume was calculated in mm^3=(a×b^2)/2.
# To test directly the effect of sGal-3 on tumor growth in vivo, a nu/nu mouse xenograft model system was used. Cells (5×10^6) from the sGal-3 expressing tet-inducible clones #12 and #21 were injected subcutaneously in the mice and sGal-3 expression was induced one week post tumor cell implantation in half of the injected mice by feeding dox in the drinking water for 12 weeks (9 mice/group). Only 4 of the 18 tumors (clone #12) in the sGal-3 expressing group developed while 14/18 tumors grew in the control group. […] Immunohistochemistry for Gal-3 expression in excised tumors from mice treated with doxycycline confirmed that Gal-3 was expressed (FIG. 7D).
# [13] = test system: Gal-3 secretion in SF767 cells; experiment: Western blot for secreted Gal-3 in SF767 glioma cells; type: cell-based, human; details: SF767, VP16 alone
# Procedure: FIG. 2E. […] This effect is inhibited by p53 siRNA (lanes 5,6) but not control siRNA (lanes 3,4).
# FIG. 23. […] This effect is inhibited by siRNAs for TSAP6 (lane 2), p53 (lane 3) and Fas (lane 4), but not control siRNA (lane 1).
# Immunoblots were performed on cell lysates (lysed in 8 M urea, 4% SDS, in 10 mM Tris (pH 7.4)), from indicated cells. The conditioned media was precipitated by 15% TCA precipitation for 2 h at 4° C., washed twice with ice-cold acetone, and then resuspended in lysis buffer (8M urea, 4% SDS, 100 mM protease inhibitor cocktail (Roche, Germany)). Electrophoresis and blotting was performed using the Criterion system (BioRad; CA, USA) on. TCA precipitated proteins. Western blots were probed with antibodies for p53 (M7001-clone DO-7; DAKO; 1:500), p21 (MS-891-P1; Neomarkers, CA, USA; 1:250), Gal-3 (ab14364; Santa Cruz, Calif., USA; 1:500), HA (Roche; Germany, 1:500), caspase-3 (1:5000), α-TSP1 (MS-421-P1-Ab-4; NeoMarkers; CA, USA; 1:1000), and PARP (556494; BD Biosciences; CA, USA, 1:1000). Actin was used as a loading control (sc-1615, Santa Cruz Biotechnology; CA; 1:500). Blots were visualized by enhanced chemiluminescence (Pierce, IL, USA). For apoptosis analysis, cells were treated with either media containing secreted Gal-3 or with both secreted Gal-3 and 50 μm Z-VAD-FMK general caspase inhibitor (BD Biosciences; CA, USA). […]
# SF767 cells = experiment: Cell death in SF767 cells in response to VP16; type: cell-based, human; details: VP16 alone or with control siRNA
# From the text: The levels of cell death in SF767 cells in response to VP16 treatment in the presence of either p53 or TSAP-6 specific siRNAs as well as in the presence of anti-Gal-3 antibody were further determined. […] This effect was inhibited in the presence of specific siRNAs for p53 (FIGS. 2E and H) or TSAP-6 as well as in the presence of anti-Gal-3 antibody. The inhibition mediated by TSAP6 siRNA was not complete, likely reflecting the incomplete TSAP6 inhibition by this siRNA (FIG. 2E).
# [14] = test system: four different human glioma cell lines; experiment: Recombinant Gal-3 added to culture medium, cell number; type: cell-based
# Procedure: FIG. 6D. Purified recombinant human Gal-3 (Research Diagnostics Inc.) induces cytotoxicity in four glioma cell lines in a dose-response fashion (0, 5, 12.5, 25, 50, 100, 150 ng/ml) within 48 hrs.
# A comparison of rGal3 with naturally secreted Gal3 evidences post-translational modifications in the naturally secreted one (data not shown).
molecule,measurement,setting,value
"sGal-3: constitutively secreted soluble Gal-3; Gal-3 cDNA fused to classical secretion signal peptide from the plasminogen activator gene, produced in 293 cells",decrease in cell number,LN-Z308 glioma cells,greater than 75%
same,decrease in cell number,LN229 glioma cells,greater than 75%
same,decrease in cell number,SF767 glioma cells,greater than 75%
same,sensitivity to sGal-3 presence in the medium,[1],sensitive
same,sensitivity to sGal-3 presence in the medium,[2],sensitive
same,sensitivity to sGal-3 presence in the medium,[3],sensitive
same,sensitivity to sGal-3 presence in the medium,[4],sensitive
same,sensitivity to sGal-3 presence in the medium,[5],sensitive
same,sensitivity to sGal-3 presence in the medium,[6],sensitive
same,viability in response to secreted Gal-3 in the media,[7],did not show decreased viability
same,viability in response to secreted Gal-3 in the media,[8],did not show decreased viability
same,apoptotic features,"[9]; sGal-3 alone, as early as 12 h post treatment","membrane blebbing, and cell death"
same,Caspase-3 and PARP cleavage,[10]; within 12 h of sGal-3 treatment,Caspase-3 and PARP cleavage
same,cell death upon induction of sGal-3,[11],cell death in all three clones
same,average tumor volume at termination versus controls,"[12]; clone #12, p<0.02",over six-fold smaller
same,tumors developed,"[12]; clone #12, sGal-3 induced by dox in drinking water for 12 weeks, control 14/18",4 of the 18
same,"tumor size at termination, fold smaller than control group","[12]; clone #21, on average",4 fold
same,tumors grew,"[12]; clone #21, sGal-3 expression, control 16/18",6 of 18
"COc1cc([C@@H]2c3cc4c(cc3[C@@H](O[C@@H]3O[C@@H]5CO[C@@H](C)O[C@H]5[C@H](O)[C@H]3O)[C@H]3COC(=O)[C@H]23)OCO4)cc(OC)c1O [Etoposide, etoposide]",secretion of Gal-3 in the media,[13],enhanced secretion of Gal-3
same,levels of cell death,SF767 cells,marked levels of apoptosis
"COC(=O)C[C@H](NC(=O)[C@H](C)NC(=O)[C@@H](NC(=O)OCc1ccccc1)C(C)C)C(=O)CF [Z-VAD, Z-VAD-FMK, reference compound] (Cbz-Val-Ala-Asp(OMe)-CH2F)",effect on sGal-3-mediated cell death,[9]; co-treatment with 50 μM Z-VAD,inhibited
same,effect on sGal-3-induced Caspase-3 and PARP cleavage,[10]; co-treatment with 50 μM Z-VAD,neutralized
rGal-3: Purified recombinant human Gal-3 (Research Diagnostics Inc.),potency compared with naturally secreted Gal-3,[14],less than that found naturally secreted by human cells
same,cell number,"[14]; increasing amounts (0, 5, 12.5, 25, 50, 100, 150 ng/ml) over 48 h",dose-dependent decrease in cell number
